Measured values: PMC8397291 (2021)

Key:
[1] = system: c-KIT 2 (DNA, G4) CCCGGGCGGGCGCGAGGGAGGGGAGG; test: fluorescence titration, 1:1 global fit (Bindfit); conditions: 100 mM KCl; 50 mM Tris pH 7.5, 25 °C, 0.6% DMSO; 1.5 μM compound
[2] = system: c-MYC Pu22 (DNA, G4) TGAGGGTGGGTAGGGTGGGTAA; test: fluorescence titration, 1:1 global fit (Bindfit); conditions: 100 mM KCl; 50 mM Tris pH 7.5, 25 °C, 0.6% DMSO; 1.5 μM compound
[3] = system: Tel-22 (DNA, G4) AGGGTTAGGGTTAGGGTTAGGG; test: fluorescence titration, 1:1 global fit (Bindfit); conditions: 100 mM KCl; 50 mM Tris pH 7.5, 25 °C, 0.6% DMSO; 1.5 μM compound
[4] = system: BCL-2 (DNA, G4) GGGCGCGGGAGGGAATTGGCGGGG; test: fluorescence titration, 1:1 global fit (Bindfit); conditions: 100 mM KCl; 50 mM Tris pH 7.5, 25 °C, 0.6% DMSO; 1.5 μM compound
[5] = system: c-MYC sG4 (DNA, G4) GGGTGGGTAGGGTGGG; test: fluorescence titration, 1:1 global fit (Bindfit); conditions: 100 mM KCl; 50 mM Tris pH 7.5, 25 °C, 0.6% DMSO; 1.5 μM compound
[6] = system: c-MYC Pu24T (DNA, G4) TGAGGGTGGTGAGGGTGGGGAAGG; test: 1D 1H NMR titration, imino shifts; conditions: 10 mM potassium phosphate, 35 mM KCl; pH 7.4, 298 K; 90 μM DNA, up to 5 eq. 2a
[7] = system: VAV-1 (DNA, G4) GGGCAGGGAGGGAACTGGG; test: fluorescence titration, 1:1 global fit (Bindfit); conditions: 100 mM KCl; 50 mM Tris pH 7.5, 25 °C, 0.6% DMSO; 1.5 μM compound
[8] = system: c-MYC Pu22 (DNA, G4) TGAGGGTGGGTAGGGTGGGTAA; test: fluorescence displacement of 2a; conditions: tracer 2a displaced
[9] = system: c-MYC Pu22 (DNA, G4) TGAGGGTGGGTAGGGTGGGTAA; test: UV-vis and fluorescence titration; conditions: 100 mM KCl; 50 mM Tris pH 7.5, 25 °C; 1.5-3.0 μM compound, up to 5.0 eq. DNA
[10] = system: TBA (DNA, G4) GGTTGGTGTGGTTGG; test: UV-vis and fluorescence titration; conditions: 100 mM KCl; 50 mM Tris pH 7.5, 25 °C; 1.5-3.0 μM compound, up to 5.0 eq. DNA
[11] = system: Tel-22 (DNA, G4) AGGGTTAGGGTTAGGGTTAGGG; test: UV-vis and fluorescence titration; conditions: 100 mM KCl; 50 mM Tris pH 7.5, 25 °C; 1.5-3.0 μM compound, up to 5.0 eq. DNA

Row | Compound | Kd [1] [µM] | Kd [2] [µM] | Kd [3] [µM] | Kd [4] [µM] | Kd [5] [µM] | binding [6] | Kd [7] [µM] | binding [8] | binding [9] | binding [10] | binding [11]
1 | CCN(CC)c1ccc2cc(C(=N)N)c(=O)oc2c1 | 9.1 | 13.0 | 45.2 | 14.6 | 12.6 | yes | 15.0 | – | – | – | –
2 | C[n+]1cc(NC(=O)c2ccc3ccc4ccc(C(=O)Nc5cc6ccccc6[n+](C)c5)nc4c3n2)cc2ccccc21 | – | – | – | – | – | – | – | yes | – | – | –
3 | N=C(N)c1cc2cc3c4c(c2oc1=O)CCCN4CCC3 | 0.7 | 0.3 | 3.8 | 0.5 | – | – | 0.3 | – | – | – | –
4 | N=C(N)c1cc2ccc(O)cc2oc1=O | – | – | – | – | – | – | – | – | no | no | no
